Source: publication PMC6440977, “Nucleoside analogue activators of cyclic AMP-independent protein kinase A of Trypanosoma” (Nature Communications, 2019)
Where “and” joins values, the source holds several entries; their conditions need not be identical. Equal entries are not always repeated.

Key:
[1] = target: T1, human PKARIα (Homo sapiens, UniProt P10644); experiment: Binding by isothermal titration calorimetry (ITC)
T1 construct: The full length ORFs (amplified with primers introducing the respective); 6xHis followed by TEV site (N); made in house; host or cells: E. coli Rosetta D3

[2] = test system: T. brucei proteome; experiment: Label-free quantitative proteomics; format: cell-based, Trypanosoma brucei
Method: Trypanosomes treated or not with 2 µM 7-CN-7-C-Ino (time course: 0 h, 6 h, 12 h) were washed twice in phosphate buffered saline (PBS) and lysed in Laemmli sample buffer to a concentration of 2.5×10^5 cells µl -1. Protein concentration was determined by Colloidal Coomassie Blue staining and densitometry. 20 µg of protein were loaded on a 10% acrylamide SDS-PAGE gel. Migration was stopped when samples had entered the resolving gel and proteins were visualized by Colloidal Coomassie Blue staining. Each SDS-PAGE band was cut into 1 mm × 1 mm gel pieces and further processed as described previously 26.
Online nanoLC-MS/MS analyses were performed using an Ultimate 3000 RSLC Nano-UPHLC system (Thermo Scientific, USA) coupled to a nanospray Q-Exactive hybrid quadrupole-Orbitrap mass spectrometer (Thermo Scientific, USA). 1 µg of each peptide extract was loaded on a 300 µm ID x 5 mm PepMap C18 precolumn (Thermo Scientific, USA) at a flow rate of 20 µl min -1. After a 3 min desalting step, peptides were separated on a 75 µm ID x 25 cm C 18 Acclaim PepMap® RSLC column (Thermo Scientific, USA) with a 4-40% linear gradient of solvent B (0.1% formic acid in 80% ACN) in 108 min. The separation flow rate was set at 300 nl min-1. The mass spectrometer operated in positive ion mode at a 1.8 kV needle voltage. Data was acquired using Xcalibur 3.1 software in a data-dependent mod e. MS scans (m/z 300-1,600) were recorded at a resolution of R = 70,000 (@ m/z 200) and an AGC target of 3×10 6 ions collected within 100 ms. Dynamic exclusion was set to 30 s and top 12 ions were selected from fragmentation in HCD mode. MS/MS scans with a target value of 1×10 5 ions

[3] = test system: PKAR; experiment: Western blot quantification of protein abundance, PKAR; format: cell-based, Trypanosoma brucei; settings: WT cells, normalized to PFR, WT 0h set to 1, individual replicates
Source text: Replicate 1 Replicate 2 Replicate 3 PKAR
WT pkar KOWT pkar KO pkar WTKO1.0PKAC1/2 […]
(a) Samples prepared for quantitative proteome analysis: PKAR and PKAC1/2 protein levels (top Western panels, red) and RXXS*/T* phos-phorylation (bottom Western panels, phospho-specific anti-RXXS*/T*, red) are quantified as summarized in the column charts next to the Western blots. The scanned values were normalized to the loading control (PFR-A/C, green) and the untreated wild type sample was set to 1. Wild type (WT) and ∆pkar/∆pkar (pkar KO) cells were treated with 7-CN-7-C-Ino (Ino) for the indicated time (PKAR/PKAC1 expression) or for 10 min (RXXS*/T* phosphorylation). Error bars represent SD of three independent experiments.
>1.5 fold (vertical dashed lines) with a p-value of <0.05 (Welch’s t-test, two-sided) are labeled as blue dots with their TriTrypDB IDs.
Source data are provided as a Source Data file.
(also on this page, place not known: WT -Log10 WT6 -Log KO6 2 4 KO -1 / KO0 -Log10 p-value KO12 / KO0 2 4 10 WT (b) p-value p-value 2 4 -Log10 p-value / WT0 -1 0 1 WT12 / WT0 Fold expression 0 0 WT KO 1.0 PKAC1/2 WT pkar KO + - 0 1 2 4 Fold RXXS/T phosphorylation 11) […]
For Western blot analysis14, the primary antibodies anti-PKAR7 (1:500), anti - […]
(ThermoFisher, catalogue number A27042, 1:5000) were used for detection using the OdysseyTM IR fluorescence scanning system. […]

[4] = WT trypanosomes, 12 hours treatment vs untreated, LFQ, three independent replicates

T1 sequence (P10644 whole entry): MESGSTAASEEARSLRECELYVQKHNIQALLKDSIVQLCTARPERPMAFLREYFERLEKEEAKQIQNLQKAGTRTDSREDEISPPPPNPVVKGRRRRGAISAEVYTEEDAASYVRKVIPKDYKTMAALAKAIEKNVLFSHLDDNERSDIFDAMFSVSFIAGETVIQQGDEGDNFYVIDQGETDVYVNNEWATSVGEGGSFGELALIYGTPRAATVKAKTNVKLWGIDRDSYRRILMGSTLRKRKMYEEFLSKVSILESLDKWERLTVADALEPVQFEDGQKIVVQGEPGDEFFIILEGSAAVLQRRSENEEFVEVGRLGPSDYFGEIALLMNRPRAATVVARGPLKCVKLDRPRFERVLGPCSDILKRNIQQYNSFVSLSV

N#Cc1cn([C@@H]2O[C@H](CO)[C@@H](O)[C@H]2O)c2ncnc(O)c12 [7-CN-7-C-Ino, 7-Cyano-7-deazainosine]
binding to purified human PKARIα, in words [1]: did not bind
fold regulation KO12 vs KO0 (up/down), Tb927.2.5820 hypothetical protein ([2]; PKAR knock out trypanosomes, 12 hours treatment vs untreated, LFQ, three independent replicates): 1.69 ± 0.28 fold
fold regulation WT12 vs WT0 (up/down), Tb927.10.12510 P-type H+-ATPase [2, 4]: 0.60 ± 0.03 fold
fold regulation WT12 vs WT0 (up/down), Tb927.10.2440 Metacaspase-4 [2, 4]: 0.65 ± 0.03 fold
fold regulation WT12 vs WT0 (up/down), Tb927.10.8440 glucose transporter [2, 4]: 1.56 ± 0.16 fold
fold regulation WT12 vs WT0 (up/down), Tb927.11.14750 PSP1 C-terminal conserved region [2, 4]: 0.52 ± 0.04 fold
fold regulation WT12 vs WT0 (up/down), Tb927.2.5820 hypothetical protein [2, 4]: 1.82 ± 0.31 fold
fold regulation WT12 vs WT0 (up/down), Tb927.4.4310 Nucleoporin NUP64 [2, 4]: 0.65 ± 0.05 fold
fold regulation WT12 vs WT0 (up/down), Tb927.7.3450 I/6 autoantigen [2, 4]: 1.58 ± 0.04 fold
fold regulation WT12 vs WT0 (up/down), Tb927.7.7520;Tb927.7.7530 receptor-type adenylate cyclase GRESAG 4 [2, 4]: 0.65 ± 0.02 fold
fold regulation WT12 vs WT0 (up/down), Tb927.8.6760 IgE-dep. histamine-releasing factor [2, 4]: 0.66 ± 0.01 fold
fold regulation WT12 vs WT0 (up/down), Tb927.8.7780 hypothetical protein [2, 4]: 1.55 ± 0.08 fold
fold regulation WT12 vs WT0 (up/down), Tb927.9.10100 hypothetical protein [2, 4]: 0.53 ± 0.02 fold
fold regulation WT12 vs WT0 (up/down), Tb927.9.11100 cAMP-dependent protein kinase catalytic subunit 1 [2, 4]: 0.36 ± 0.01 fold
fold regulation WT12 vs WT0 (up/down), Tb927.9.12380 Histidine phosphatase superfamily (branch 1) [2, 4]: 0.48 ± 0.11 fold
fold regulation WT12 vs WT0 (up/down), Tb927.9.2670 Engulfment and cell motility domain-containing protein [2, 4]: 1.70 ± 0.08 fold
significantly regulated proteins, in words ([2]; wild type, 6 h post induction): No significantly regulated proteins
significantly regulated proteins (number) ([2]; wild type, 12 h post induction, ≥[…], p ≤ 0.05): 14
PKAR Western quantification ([3]; 6 h treatment): 0.8653 and 0.7031 and 1.455
PKAR Western quantification ([3]; 12 h treatment): 0.7135 and 0.7185 and 1.457
